Reference: patent US10752617B2 (GALDERMA RESEARCH & DEVELOPMENT, priority 2014, dated 2020)

Key:
[1] = system: IL-17A secretion by CD4+ cells; test: IL-17A secretion by activated CD4+ cells (HTRF); format: cell-based; conditions: 96 h; human CD4+ cells activated with anti-CD3 and anti-CD28, 4 days of incubation, inhibitors 1000 nM to 0.05 nM; read-out: IC50 hCD4/IL17
Method: (§1) In the tables described above, the median inhibitory concentrations IC50 for the compounds belonging to formula (I) according to the invention have been given according to the following models:
This model allows measurement of the effect of inhibitors on IL-17A secretion by CD4+ cells. The cells are frozen CD4+ cells (STEMCELL, #70026), isolated from peripheral human blood and activated with anti-CD3 and anti-CD28 antibodies. The amount of IL-17a secreted is measured by the TR-FRET (kit HTRF® Human Interleukin 17A (Cisbio, #64H17PEC)) technology.
The cells are rapidly thawed, resuspended in their culture medium (RPMI inactivated 10% FCS) supplemented with soluble anti-CD28 antibodies and seeded (100 000 cells/well) in 96-well plates precoated with anti-CD3 antibodies. The cells are then treated with the ranges of inhibitors to be tested (from 1000 nM to 0.05 nM, 0.1% DMSO). After 4 days of incubation, the HTRF signal is measured using a microplate reader (λexcitation=337 nm, λemission=620/665 nm). The ratios obtained (665/620) are normalized relative to the positive control (cells activated with anti-CD3 and anti-CD28, 0.1% DMSO). The IC50 values are calculated from a 4-parameter logistic model using the XLFit software (IDBS).

[2] = target: T1, GAL4-RORγ (GAL4 DBD fused to the ROR gamma ligand-binding domain) (Homo sapiens, UniProt P51449); test: GAL4-RORγ transactivation (luciferase reporter, HG5LN HeLa line); format: cell-based; conditions: HG5LN HeLa cells, 18 hours incubation, luciferase luminescence, read-out: IC50 hRORg
T1 construct: expressed in transfected cells; host or cells: HG5LN (HeLa line with GAL4-responsive luciferase reporter)
T1 sequence (P51449 269-508 limits assumed): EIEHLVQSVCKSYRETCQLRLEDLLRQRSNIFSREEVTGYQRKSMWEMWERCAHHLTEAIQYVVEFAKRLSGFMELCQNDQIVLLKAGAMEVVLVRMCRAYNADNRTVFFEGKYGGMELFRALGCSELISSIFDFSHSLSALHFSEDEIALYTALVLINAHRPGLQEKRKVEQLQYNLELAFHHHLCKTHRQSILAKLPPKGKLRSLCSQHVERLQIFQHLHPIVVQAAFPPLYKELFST
Excerpt: as §1
GAL4-RORγ Transactivation
The RORγ transactivation model was developed from the line HG5LN, which is a HeLa line that stably expresses a luciferase reporter gene controlled by a pentamer of the GAL4 recognition domain of yeast and of a β-globin promoter. The HG5LN line was stably transfected by the DNA-binding domain (DBD) of GAL4 fused to the ROR gamma ligand-binding domain (LBD). Molecules that inhibit the ROR gamma constitutive activity reduce the luciferase expression, thus leading to a reduction in the emitted luminescence.
The cells are seeded in 384-well plates (5000 cells in 45 μL/well of culture medium containing 10% fetal calf serum) and incubated for 4 hours at 37° C., 5% CO2. 5 μL of the test molecules (compounds described in the tables described above) are then added to each well and the plates are incubated for 18 hours at a temperature of 37° C. under 5% of CO2. 20 μL of luciferase substrate (Promega) are added to each well and the luminescence emitted is read by a microplate reader.
The luminescence units (“RLU”) are normalized by positive controls (“POS” containing a saturated concentration of N-(2,2,2-trifluoroethyl)-N-[4-[2,2,2-trifluoro-1-hydroxy-1-(trifluoromethyl)ethyl]phenyl])benzenesulfonamide and negative controls (“NEG” containing DMSO): % inhibition=((RLU−NEG)*100)/(POS−NEG). The IC50 values are calculated from a 4-parameter logistic model using the XLFit software (IDBS).

Compound | IC50 [1] [nM] | IC50 [2] [nM]
CCc1ccc(N(CC(C)C)S(=O)(=O)c2ccc3c(cnn3CC3COC3)c2)cc1 [Compound 37, N-(4-ethylphenyl)-N-isobutyl-1-(oxetan-3-ylmethyl)-1H-indazole-5-sulfonamide] | < 100 | 100 to 1000
CCc1ccc(N(CC(C)C)S(=O)(=O)c2ccc3c(CC4CCOCC4)n[nH]c3c2)cc1 [Compound 63, 3-(tetrahydropyran-4-ylmethyl)-1H-indazole-6-sulfonic acid (4-ethylphenyl)isobutylamide] | < 100 | < 100
CCc1ccc(N(CC(C)C)S(=O)(=O)c2ccc3c(CN4CCOCC4)n[nH]c3c2)cc1 [Compound 64, 3-morpholin-4-ylmethyl-1H-indazole-6-sulfonic acid (4-ethylphenyl)isobutylamide] | < 100 | < 100
CC(C)CN(c1ccc(N(C)C)cc1)S(=O)(=O)c1ccc2c(cnn2CC2CCOCC2)c1 [Compound 72, 1-(tetrahydropyran-4-ylmethyl)-1H-indazole-5-sulfonic acid (4-dimethylaminophenyl)isobutylamide] | 100 to 1000 | 100 to 1000

Second part, the compound after the results:

IC50 [1] [nM] | IC50 [2] [nM] | Compound
100 to 1000 | 100 to 1000 | CCc1ccc(N(CC(C)C)S(=O)(=O)c2ccc3c(cnn3CC3CCOCC3)c2)cc1 [Compound 39, N-(4-ethylphenyl)-N-isobutyl-1-((tetrahydro-2H-pyran-4-yl)methyl)-1H-indazole-5-sulfonamide]
< 100 | 100 to 1000 | COC(=O)c1ccc(N(CC(C)C)S(=O)(=O)c2ccc3c(cnn3CC3CCOCC3)c2)c(C)c1 [Compound 56, methyl 4-{isobutyl[1-(tetrahydropyran-4-ylmethyl)-1H-indazole-5-sulfonyl]amino}-3-methylbenzoate]
> 1000 | > 1000 | Cc1cc(C)c(N(CC(C)C)S(=O)(=O)c2ccc3c(cnn3CC3CCOCC3)c2)cn1 [Compound 71, 1-(tetrahydropyran-4-ylmethyl)-1H-indazole-5-sulfonic acid (4,6-dimethylpyridin-3-yl)isobutylamide]
